Measurements published in publication PMC8540742, “New N-Substituted-1,2,4-triazole Derivatives of Pyrrolo[3,4-d]pyridazinone with Significant Anti-Inflammatory Activity—Design, Synthesis and Complementary In Vitro, Computational and Spectroscopic Studies” (International Journal of Molecular Sciences, 2021).
One block for each compound: values may come before it.

Molecular target: T1, bovine serum albumin (BSA) (Bos taurus, UniProt P02769)
T1 construct: gene ALB; commercial native serum albumin (Sigma Aldrich, named for the FT-IR work), mature protein 583 residues, no tags
Test: intrinsic fluorescence quenching (ex […] nm)
Assay type: binding
Settings: […] K, pH […] BSA; static quenching; n about […]; subdomain IIIA by site markers; double-log

T1 sequence (P02769 25-607): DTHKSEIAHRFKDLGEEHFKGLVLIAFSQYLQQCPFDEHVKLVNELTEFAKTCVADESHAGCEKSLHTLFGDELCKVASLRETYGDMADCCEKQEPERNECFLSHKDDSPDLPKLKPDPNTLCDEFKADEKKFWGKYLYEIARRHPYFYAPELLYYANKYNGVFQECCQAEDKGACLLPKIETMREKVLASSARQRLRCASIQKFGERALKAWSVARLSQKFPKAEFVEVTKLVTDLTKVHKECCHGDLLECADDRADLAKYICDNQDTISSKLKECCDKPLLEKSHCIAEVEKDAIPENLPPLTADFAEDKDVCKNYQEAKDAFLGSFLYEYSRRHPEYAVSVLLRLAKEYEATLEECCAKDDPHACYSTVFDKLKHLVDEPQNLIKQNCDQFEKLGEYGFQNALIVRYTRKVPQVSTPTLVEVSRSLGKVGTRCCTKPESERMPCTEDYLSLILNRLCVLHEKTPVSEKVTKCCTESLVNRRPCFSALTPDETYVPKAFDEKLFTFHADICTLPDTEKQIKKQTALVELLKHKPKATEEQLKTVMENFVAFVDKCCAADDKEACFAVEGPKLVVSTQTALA

Structure (SMILES): CCCCn1c(C)c2c(OCc3nn(CN4CCN(c5ccccc5)CC4)c(=S)n3C)nn(C)c(=O)c2c1C [4a, 6-butyl-3,5,7-trimethyl-1-[[4-methyl-2-[(4-phenylpiperazin-1-yl)methyl]-3-thioxo-2H-1,2,4-triazol-5-yl]methoxy]pyrrolo[3,4-d]pyridazin-4-one]
Binding / Kb × 10^4 [dm^3mol^-1]: 8.91 × 10^4 dm^3 mol^-1

Structure (SMILES): CCCCn1c(C)c2c(OCc3nn(CN4CCN(c5ccccc5)CC4)c(=S)n3-c3ccccc3)nn(C)c(=O)c2c1C [4b, 6-butyl-3,5,7-trimethyl-1-[[4-phenyl-2-[(4-phenylpiperazin-1-yl)methyl]-3-thioxo-2H-1,2,4-triazol-5-yl]methoxy]pyrrolo[3,4-d]pyridazin-4-one]
Binding / Kb × 10^4 [dm^3mol^-1]: 6.61 × 10^4 dm^3 mol^-1

Structure (SMILES): CCCCn1c(C)c2c(OCc3nn(CN4CCN(c5cccc(C(F)(F)F)c5)CC4)c(=S)n3C)nn(C)c(=O)c2c1C [5a, 6-butyl-3,5,7-trimethyl-1-[[4-methyl-2-[[4-[3-(trifluoromethyl)phenyl]piperazin-1-yl]methyl]-3-thioxo-2H-1,2,4-triazol-5-yl]methoxy]pyrrolo[3,4-d]pyridazin-4-one]
Binding / Kb × 10^4 [dm^3mol^-1]: 8.13 × 10^4 dm^3 mol^-1

Structure (SMILES): CCCCn1c(C)c2c(OCc3nn(CN4CCN(c5cccc(C(F)(F)F)c5)CC4)c(=S)n3-c3ccccc3)nn(C)c(=O)c2c1C [5b, 6-butyl-3,5,7-trimethyl-1-[[4-phenyl-2-[[4-[3-(trifluoromethyl)phenyl]piperazin-1-yl]methyl]-3-thioxo-2H-1,2,4-triazol-5-yl]methoxy]pyrrolo[3,4-d]pyridazin-4-one]
Binding / Kb × 10^4 [dm^3mol^-1]: 5.75 × 10^4 dm^3 mol^-1

Structure (SMILES): CCCCn1c(C)c2c(OCc3nn(CN4CCN(c5cccc(C(F)(F)F)c5)CC4)c(=S)n3-c3ccc(OC)cc3)nn(C)c(=O)c2c1C [5c, 6-butyl-1-[[4-(4-methoxyphenyl)-2-[[4-[3-(trifluoromethyl)phenyl]piperazin-1-yl]methyl]-3-thioxo-2H-1,2,4-triazol-5-yl]methoxy]-3,5,7-trimethyl-pyrrolo[3,4-d]pyridazin-4-one]
Binding / Kb × 10^4 [dm^3mol^-1]: 9.33 × 10^4 dm^3 mol^-1

The next lines start with the values.

Binding / Kb × 10^4 [dm^3mol^-1]: 4.90 × 10^4 dm^3 mol^-1
Structure (SMILES): CCCCn1c(C)c2c(OCc3nn(CN4CCN(c5ccc(C)cc5)CC4)c(=S)n3C)nn(C)c(=O)c2c1C [6a, 6-butyl-3,5,7-trimethyl-1-[[4-methyl-2-[[4-[(4-methyl)phenyl]piperazin-1-yl]methyl]-3-thioxo-2H-1,2,4-triazol-5-yl]methoxy]pyrrolo[3,4-d]pyridazin-4-one]

Binding / Kb × 10^4 [dm^3mol^-1]: 8.13 × 10^4 dm^3 mol^-1
Structure (SMILES): CCCCn1c(C)c2c(OCc3nn(CN4CCN(c5ccc(C)cc5)CC4)c(=S)n3-c3ccccc3)nn(C)c(=O)c2c1C [6b, 6-butyl-3,5,7-trimethyl-1-[[4-phenyl-2-[[4-[(4-methyl)phenyl]piperazin-1-yl]methyl]-3-thioxo-2H-1,2,4-triazol-5-yl]methoxy]pyrrolo[3,4-d]pyridazin-4-one]

Binding / Kb × 10^4 [dm^3mol^-1]: 9.55 × 10^4 dm^3 mol^-1
Structure (SMILES): CCCCn1c(C)c2c(OCc3nn(CN4CCN(c5ccc(C)cc5)CC4)c(=S)n3-c3ccc(OC)cc3)nn(C)c(=O)c2c1C [6c, 6-butyl-1-[[4-(4-methoxyphenyl)-2-[[4-[(4-methyl)phenyl]piperazin-1-yl]methyl]-3-thioxo-2H-1,2,4-triazol-5-yl]methoxy]-3,5,7-trimethyl-pyrrolo[3,4-d]pyridazin-4-one]

Binding / Kb × 10^4 [dm^3mol^-1]: 4.68 × 10^4 dm^3 mol^-1
Structure (SMILES): CCCCn1c(C)c2c(OCc3nnc(SCC(=O)N4CCN(c5ccccc5)CC4)n3C)nn(C)c(=O)c2c1C [7a, 6-butyl-3,5,7-trimethyl-1-[[4-methyl-3-[2-oxo-2-(4-phenylpiperazin-1-yl)ethyl]sulfanyl-2H-1,2,4-triazol-5-yl]methoxy]pyrrolo[3,4-d]pyridazin-4-one]

Binding / Kb × 10^4 [dm^3mol^-1]: 9.33 × 10^4 dm^3 mol^-1
Structure (SMILES): CCCCn1c(C)c2c(OCc3nnc(SCC(=O)N4CCN(c5ccccc5)CC4)n3-c3ccccc3)nn(C)c(=O)c2c1C [7b, 6-butyl-3,5,7-trimethyl-1-[[4-phenyl-3-[2-oxo-2-(4-phenylpiperazin-1-yl)ethyl]sulfanyl-2H-1,2,4-triazol-5-yl]methoxy]pyrrolo[3,4-d]pyridazin-4-one]

Binding / Kb × 10^4 [dm^3mol^-1]: 9.33 × 10^4 dm^3 mol^-1
Structure (SMILES): CCCCn1c(C)c2c(OCc3nnc(SCC(=O)N4CCN(c5ccccc5)CC4)n3-c3ccc(OC)cc3)nn(C)c(=O)c2c1C [7c, 6-butyl-3,5,7-trimethyl-1-[[4-(4-methoxy)phenyl-3-[2-oxo-2-(4-phenylpiperazin-1-yl)ethyl]sulfanyl-2H-1,2,4-triazol-5-yl]methoxy]pyrrolo[3,4-d]pyridazin-4-one]
